# No end group written: not given here.
# Columns and labels:
# [1] = Deaths, clinical morbidity, blood chemistries and signs of toxicity in treated EAE mice; format: in vivo, SJL/J mice
# Protocol: An EAE model was established in strain SJL/J mice that is characterized by a relapsing-remitting clinical course. […] Immediately after immunization, animals received an intravenous injection of 200 ng Bordetella pertussis toxin in 200 μl PBS. Animals were weighed daily and assessed for clinical signs of EAE by two independent observers.
# […] Blood was collected for 5 weeks to document changes in hematocrit.
# [2] = tested on: PLP antigen-induced symptomatic SJL/J EAE mice; assay: Spinal cord pathology in EAE mice (mononuclear infiltration, SMI-32 staining); format: in vivo; conditions: treated 7 days
# Protocol: Groups of PLP antigen-induced symptomatic SJL/J EAE mice were treated with either JM-4 peptide or PBS for 7 days, and spinal cords were removed for pathologic examination.
# Monoclonal antibody (SMI-32) (Sternberger Monoclonal Antibodies, Lutherville, Md.) that reacts with a nonphosphorylated epitope in neurofilament H-was used. The reaction is masked when the epitope is phosphorylated. Briefly, frozen tissue sections (16 μm) were acetone-fixed for 10 minutes and air dried. Antigen retrieval was performed using 1× Target Unmasking Fluid (TUF) (Zymed Laboratories, San Francisco, Calif.). Slides were reacted with TUF at 95° C. for 10 minutes, then at room temperature (25° C.) for 10 minutes. SMI-32 primary antibody was diluted (1:5000) with 2% normal horse serum in PBS (1×) and reacted overnight at 4° C. Additional slides were processed without the primary antibody to provide an appropriate control. Slides then were washed twice with PBS (1×) for 3 minutes each wash, and reacted with a biotinylated anti-mouse antibody (Vector Laboratories, Burlingame, Calif.). The slides were washed twice (PBS (1×), 3 minutes each wash), reacted with an avidin-biotin/horseradish peroxidase complex (Vector Laboratories, Burlingame, Calif.) for 30 minutes at room temperature, and washed (PBS (1×), 3 minutes). Slides were visualized with Tyramide signal amplification/Cyanine-3 dye (Perkin Elmer, Waltham, Mass.) at 1:200 dilution in amplification buffer (Perkin Elmer, Waltham, Mass.). Slides then were mounted in glycerol and examined by fluorescence microscopy.
# Acute axonal injury in spinal long tract was assessed by SMI-32 staining for nonphosphorylated neurofilaments (FIG. 3, black DAB staining, bottom 2 panels).
# [3] = tested on: brain injured mice (controlled cortical impact); assay: Summed area containing TUNEL positive cells within the lesioned hemisphere; format: in vivo, C57BL/6 mice; conditions: 3 days post-injury
# Protocol: The effect of JM-4 peptide therapy on the summed area containing TUNEL positive cells within the lesioned hemisphere was evaluated 3 days post-injury. In this experiment, the same TUNEL stained sections (from Example 5) used to quantify the number of TUNEL positive cells were used to quantify the total area containing dying cells within the injured hemisphere.
# [4] = tested on: acutely symptomatic EAE animals; assay: JM-4 peptide therapy on acutely symptomatic EAE animals; format: in vivo; conditions: 4 days of therapy
# From the text: The effect of JM-4 peptide therapy on acutely symptomatic EAE animals was studied. Five sham-treated animals with EAE were compared to five EAE animals that had received 4 days of therapy with JM-4 peptide. The sham-treated animals were barely capable of moving their heads with marked four limb weakness. […] The JM-4 peptide treated animals have some neurologic residua (they have a waddling gait and their tails drag).
# EAE in SJL/J mice = assay: PLP antigen-induced relapsing-remitting EAE, clinical score; format: in vivo
# Protocol: JM-4 peptide rapidly reduces neurologic deficit in EAE mice. […] Mice first were immunized with a suboptimal dose of PLP antigen (100 μg) on day 0; the mice developed clinical deficits, and were allowed to recover for about 21 days. Recovered EAE mice received 7 days of treatment with either cyclic JM-4 peptide (i.v. 250 ng/kg) or PBS (i.v.) before receiving a second PLP antigen immunization (100 μg).
# TBI mice = assay: Simple Neuroassessment of Asymmetric Impairment (SNAP) after traumatic brain injury; format: in vivo, C57BL/6 mice; conditions: 10 days post-injury, versus vehicle treated TBI mice
# Protocol: SNAP is a scoring system, based on six tests, developed and validated to assess neurological deficits induced in a mouse model of traumatic brain injury. Mice are evaluated to assess neurological parameters for: (1) interaction with a handler, (2) cage grasp, (3) visual placing, (4) pacing/circling, (5) posture and head tilt, and (6) the baton test. The results from each of the six tests are summed to derive the overall SNAP score. SNAP scores are high when asymmetric deficits are apparent; thus, a neurologically intact animal would be expected to have a SNAP score of “0.” SNAP allows for ambiguous results (for example, a score of ‘1’) and test scores of 2 to 5 are assigned when asymmetric deficits were apparent. In addition, a range is allowed when the deficit appears to span more than one definition for a test score; ranges then are averaged to derive the test score (for example, a range of 2 to 3 would be scored as 2.5 for that test). […]
# An uninjured mouse would ambulate in a random pattern (for example, turning either to the right or turning to the left when facing a corner). An injured mouse was expected to ambulate in a consistent pattern (for example, consistently turn toward one direction, and not be readily coaxed in the opposite direction). […]
# The effect of JM-4 peptide therapy on neurologic deficits (SNAP scores) was evaluated 10 days post-injury by blinded observers.
# [5] = parameters: species or system SJL/J mice; conditions: mouse, in vivo
# Protocol: An EAE model was established in strain SJL/J mice that is characterized by a relapsing-remitting clinical course. Briefly, mice were immunized subcutaneously at the tail base with 100 μl (200 μg) myelin oligodendrocyte glycoprotein (MOG) peptide dissolved in distilled water and emulsified with an equal volume of complete Freund's adjuvant supplemented with 4 mg/ml Mycobacterium tuberculosis H37Ra. Immediately after immunization, animals received an intravenous injection of 200 ng Bordetella pertussis toxin in 200 μl PBS. Animals were weighed daily and assessed for clinical signs of EAE by two independent observers.
# Five mice per group were given either daily i.v. full length EPO (50-500 U/kg) or short EPO-peptide JM-4 peptide (250-500 μg/kg; 5-10 μg/mouse) in PBS, or PBS alone for 9 to 14 days. Blood was collected for 5 weeks to document changes in hematocrit.
# Hematocrit can be determined by centrifuging heparinized blood in a capillary tube (microhematocrit tube) at 10,000 rpm for 5 minutes. This separates the blood into layers. The volume of packed red blood cells, divided by the total volume of the blood sample gives the packed cell volume (PCV). Because a tube is used, this can be calculated by measuring the lengths of the layers.
# [6] = tested on: brain injured mice (controlled cortical impact); assay: Controlled cortical impact traumatic brain injury, TUNEL positive cells in the injured hemisphere; conditions: for number of dying (TUNEL positive) cells: i.p. within 30 minutes of trauma for 3 days, both 3 and 8 days post injury, p<0.001 and p<0.01
# From the text: C57BL/6 mice were anesthetized with isofurane/oxygen inhalation and placed in a stereotaxic frame. The head position was established in the horizontal plane and a craniotomy (4 mm) was produced lateral to the sagittal suture between lambda and bregma, with the dura mater left intact over the cortex. A cortical contusion injury was produced utilizing a pneumatically driven 2.5 mm diameter rod tip at 3.5 m/s to a depth of 1 mm with a dwell time of 400 ms (Precision System Instruments TBI-0300 Impactor, Lexington, Ky.). After injury, a 5 mm disk constructed from dental cement was placed over the craniotomy site and adhered to the skull using cyanocrylate. During the early post-operative phase, animal temperature was maintained by placing the animals on heating pads.
# Mice in the whole molecule EPO group received 5000 U/kg body weight rhEPO (Epoetin alpha, Amgen, Thousand Oaks, Calif.) intraperitoneally (i.p.). […] Mice in the PBS and sham-operated groups received 200 μl filtered sterile PBS.
# Mice were sacrificed at 3 days or 8 days post-injury; brains were collected and immediately frozen on dry ice. The frozen brains were serially sectioned in coronal cuts onto 15 slides with 12 sections (16 μm thickness) per slide extending from the anterior to the posterior edge of the lesion. Sections were placed such that each individual slide contained a representative sampling of the entire lesion within the injured hemisphere.
# Cell death in the mouse brains was detected using a modification of the Apoptag® (Millipore, Billerica, Mass.) in situ TUNEL method. Cryosections (16 μm thickness) were mounted and fixed in 100% acetone for 10 minutes. The slides were rehydrated and post-fixed in 2:1 ethanol:acetic acid for 11 minutes at −20° C., and then washed thoroughly in Stop/Wash Buffer (Apoptag®). Slides were incubated with equilibration buffer for 10 minutes immediately followed by working strength TdT enzyme (33 parts enzyme/77 parts buffer (Apoptag®)) for 60 minutes at 37° C. The TUNEL reaction was detected with Cy3 anti-digox (1:200; Jackson Immunoresearch, West Grove, Pa.).
# Micrographs of the processed slides were acquired with a fluorescent Olympus BX60 microscope fitted with a Retiga 2000R digital camera at 10 times magnification. The total number of TUNEL positive cells in lesioned hemispheres and the total area of the brain containing the TUNEL positive cells were quantified using digital imaging software (I.P. lab 4.0, Becton Dickinson, Franklin Lakes, N.J.).
# The animals were sacrificed after 3 or 8 days and the injured forebrain lesions were serially sectioned. Cell death within the damaged hemisphere was quantified by DNA fragmentation (TUNEL stain) to determine the degree of neuroprotection. Serial sections containing the entire lesion site and the TUNEL labeled peri-lesional zone were photographed, digitized, and the images used to quantify the number of positive cells by IP lab 4.0 Software (Becton Dickinson, Franklin Lakes, N.J.).
# Mice were sacrificed 3 days post-TBI. The effect of treatment delay was determined by TUNEL staining.
substance,measurement,setting,value
"GCAEHCSLNENITVPDTKV (also: cyclic, mode of cyclisation not given here) [JM-4]",signs of toxicity,"[1]; PLP EAE mice, JM-4 therapy i.v. 250 ng/kg",nor were any signs of toxicity observed
same,blood chemistries,[1]; small group treated for 7 days,remained unaltered
same,vacuolar changes,[2]; versus PBS,fewer vacuolar changes
same,white matter mononuclear infiltration,[2]; versus PBS,marked reduction
same,injured SMI-32 positive axons,[2]; versus sham,far fewer injured axons
same,lesional area containing TUNEL positive cells,[3],much reduced
same,reduction of lesioned volume (area),"[3]; versus PBS, p<0.001",greater than 50%
same,neurologic state versus sham-treated animals,[4],mobile and markedly improved
same,clinical signs in response to the second PLP immunization,"EAE in SJL/J mice; after 7 days i.v. 250 ng/kg, versus sham, p<0.05",less severe clinical signs at a later time
same,disease severity in long term follow-up,"EAE in SJL/J mice; after discontinuation of all therapy for 30 days, p<0.001",much milder disease
same,clinical score versus sham treated (saline),"EAE in SJL/J mice; recovered EAE mice, 7 days i.v. 250 ng/kg, p<0.05",Marked clinical improvement
same,clinical score after a second seven-day treatment course,EAE in SJL/J mice; versus PBS sham treated animals,Clinical improvement again was observed
same,neurologic deficits (composite SNAP score),TBI mice,significant improvement in neurologic deficits
same,effect on hematocrit,[5],no effect on hematocrit
same,increase in red blood cell mass,[5],not associated with any increase in red blood cell mass
same,cell death judged by TUNEL positivity,[6]; 0.1 μg i.p. daily for 72 hours,failed to significantly block cell death
same,cell death judged by TUNEL positivity,[6]; 1 μg i.p. daily for 72 hours,failed to significantly block cell death
same,reduction of neural cell death (TUNEL),"[6]; 10 μg i.p., 3 days, FIG. 5A",~70%
same,TUNEL positive dying cells versus sham,"[6]; 10 μg i.p., first treatment 15 minutes post-injury",statistically significant neuroprotective effect
same,TUNEL positive dying cells versus sham,"[6]; 10 μg i.p., first treatment 3 hours post-injury",equally effective
same,TUNEL positive dying cells versus sham,"[6]; 10 μg i.p., first treatment 9 hours post-injury",equally effective
same,TUNEL positive dying cells versus sham,"[6]; 10 μg i.p., treatment delayed 24 hours",Very little treatment effect
same,cell death judged by TUNEL positivity,"[6]; 10 micrograms i.p. daily for 72 hours, p=0.005",significant protected against cell death
same,cell death judged by TUNEL positivity,"[6]; 50 micrograms i.p. daily for 72 hours, p=0.005",significant protected against cell death
same,cell death judged by TUNEL positivity,"[6]; 100 micrograms i.p. daily for 72 hours, p=0.005",significant protected against cell death
same,neuroprotection by TUNEL,"[6]; 8 days, FIG. 5B",neuroprotective
same,blocking cell death compared with whole molecule EPO,[6]; JM-4 10 μg i.p. versus EPO 5000 U/kg i.p.,at least as effective as using whole molecule EPO
same,cell death (TUNEL-positive cells),"[6]; PO by gavage, 100 micrograms daily, 3 hours after injury, p=0.01",effective blocking cell death
same,therapeutic window,[6]; following severe head trauma,at least 9 hours
same,number of dying (TUNEL positive) cells,[6],dramatically reduced
"Epoetin Alfa [rhEPO, reference compound]",clinical signs of toxicity,[1]; SJL/J mice treated with rhEPO,"developed red-blue ears and tails within 5 to 6 days, typically leading to death"
same,effect on hematocrit,[5],increased markedly within one week
same,number of dying (TUNEL positive) cells,[6],dramatically reduced

# Source: patent US11559565B2, “Methods for treating inflammatory disorders and traumatic brain injury using stabilized non-hematopoietic EPO short peptides” (United States Government as Represented By The Department …, priority 2005, dated 2023)
